From patent publication US20060063784A1, “Method of using substituted pyrazolo [1,5-a] pyrimidines” (priority 2004, published 2006)
Where two headings read alike, the source gives them in different places.

Tested on: 80S14 (p21-deficient) cells
Test: Cytotoxicity assay using isogenic cell lines: IC50 in 80S14 (p21-deficient) cells, SRB
Type: cell-based, human
Conditions: 80S14 p21-deficient cells, 5 days incubation, SRB, read-out: IC50 for 80SI4
Method: Cytotoxicity Assay Using Isogenic Cell Lines: • 1. 80S14 (p21-deficient) cells were cultured in RPMI 1640 medium (Gibco/Invitrogen Life technologies) supplemented with 10% fetal bovine serum (FBS, Gibco) and 10 μg/ml gentamycin (Gibco). Cells were maintained at 37° C. under 7% CO2 • 2. Cells were plated at 6×10^4/ml (0.2 ml/well; 12,000 cells/well) in 96-well microtiter plates (Falcon or Corning/Costar) and incubated at 37° C. overnight (18-24 hours). • 3. 2-5 μl of the test agent [200 μg/ml stock in 20% DMSO/20 mM HEPES, pH 7.5 (Gibco)] was added to each well to achieve a final concentration of 2-5 μg/ml. Cells were incubated with the test compounds for 5 days at 37° C. • 4. Surviving cells were fixed with 50 μl 50% trichloroacetic acid (Sigma; 10% final concentration) for 1 hour at 4° C. • 5. Plates were rinsed twice with water (0.3 ml per wash using MRD8 robot), and allowed to dry. • 6. Sulforhodamine B (SRB) (Sigma; 0.4% in 1% acetic acid, 50 μl per well; MRD8 robot) was added and plates kept at room temperature for 10 minutes. • 7. Excess dye was removed by washing with 1% acetic acid (3 times, 0.3 ml per wash; MRD8 robot) and allowed to dry. • 8. The dye was solubilized in Tris base (Sigma; 10 mM, 150 μl per well). Plates were kept at room temperature for 30 minutes to allow the dye to diffuse. • 9. Absorbance was measured at 540 nm. • 10. The percentage of cells surviving drug treatment relative to control wells (no drug) was determined. • 11. The difference in % cell survival between the two cell lines was calculated. • 12. Compounds producing a difference score of >50 were considered to be selective for the p21-deficient cells and were evaluated further: Determination of selectivity of compounds for p21−/− cells: • 1. 80S14 cells were cultured as described above. • 2. Cells were seeded in 96-well microtiter plates at 12,000 cells/well (either 0.15 ml/well of 8×10^4 cells/ml suspension, or 0.2 ml/well of 6×10^4 cells/ml suspension). Plates were incubated at 37° C. overnight (18-24 hours). • 3. Serial dilutions of the test agent were added to each well. Dilutions were prepared either in 40% DMSO/20% methanol/20 mM HEPES, pH 7.5 (Gibco) or directly in growth medium. One of two dose ranges were used: 5 pM to 50 μM or 170 pg/ml to 10 μg/ml. Cells were incubated with the test compounds for 5 days at 37° C. • 4. Surviving cells were fixed with 50 μl 50% trichloroacetic acid (Sigma; 10% final concentration) for 1 hour at 4° C. • 5. Plates were rinsed extensively in water, and allowed to dry. • 6. Sulforhodamine B (Sigma; 0.4% in 1% acetic acid, 70 μl per well) was added and plates kept at room temperature for 10 minutes. • 7. Excess dye was removed by washing 5 times with 1% acetic acid and plates were allowed to dry. • 8. The dye was solubilized in Tris base (Sigma; 10 mM, 150 μl per well). Plates were placed on a titer plate shaker (Lab Line Instruments) for 5 minutes to allow the dye to diffuse. • 9. Absorbance was measured at 560 nm.
10. The drug concentration that inhibits cell proliferation by 50% relative to untreated controls (IC50) was determined from cytotoxicity curves.

SMILES | IC50 [µM] | IC50 (Homo sapiens, 120 h) [µM]
CC(C)C[C@H](N)C(=O)Nc1cccc(-c2ccnc3c(C(=O)c4cccs4)cnn23)c1 [Example 79, N-1-{3-[3-(thien-2-ylcarbonyl)pyrazolo[1,5-a]pyrimidin-7-yl]phenyl}-L-leucinamide] | 10 to 50 | –
CC(C)C[C@H](N)C(=O)Nc1cccc(-c2ccnc3c(C(=O)c4cccs4)cnn23)c1 [Example 80, N-1-{3-[3-(thien-2-ylcarbonyl)pyrazolo[1,5-a]pyrimidin-7-yl]phenyl}-L-leucinamide] | 1 to 10 | –
N[C@@H](Cc1ccccc1)C(=O)Nc1cccc(-c2ccnc3c(C(=O)c4cccs4)cnn23)c1 [Example 81, N-{3-[3-(thien-2-ylcarbonyl)pyrazolo[1,5-a]pyrimidin-7-yl]phenyl}-L-phenylalaninamide] | – | 10 to 50
N[C@@H](CC1CCCCC1)C(=O)Nc1cccc(-c2ccnc3c(C(=O)c4cccs4)cnn23)c1 [Example 82, 3-cyclohexyl-N-1-[3-[3-(thien-2-ylcarbonyl)pyrazolo[1,5-a]pyrimidin-7-yl]phenyl}-L-alaninamide] | 10 to 50 | –
CC(C)[C@H](N)C(=O)Nc1cccc(-c2ccnc3c(C(=O)c4cccs4)cnn23)c1 [Example 83, N-1-{3-[3-(thien-2-ylcarbonyl)pyrazolo[1,5-a]pyrimidin-7-yl]phenyl}-L-valinamide] | 1 to 10 | –
NCCCC(=O)Nc1cccc(-c2ccnc3c(C(=O)c4cccs4)cnn23)c1 [Example 84, 4-amino-N-{3-[3-(thien-2-ylcarbonyl)pyrazolo[1,5-a]pyrimidin-7-yl]phenyl}butanamide] | – | 10 to 50
O=C(c1cccs1)c1cnn2c(-c3cccc(NC(=O)[C@@H]4CCCN4)c3)ccnc12 [Example 85] | 1 to 10 | –
N[C@H](C(=O)Nc1cccc(-c2ccnc3c(C(=O)c4cccs4)cnn23)c1)C1CCCCC1 [Example 86] | 1 to 10 | –
Cc1ccc(C(=O)Nc2cccc(-c3ccnc4c(C(=O)c5cccs5)cnn34)c2)cc1 [Example 87, 4-methyl-N-{3-[3-(thien-2-ylcarbonyl)pyrazolo[1,5-a]pyrimidin-7-yl]phenyl]benzamide] | – | < 1
COc1ccc(C(=O)Nc2cccc(-c3ccnc4c(C(=O)c5cccs5)cnn34)c2)cc1 [Example 88, 4-methoxy-N-{3-[3-(thien-2-ylcarbonyl)pyrazolo[1,5-a]pyrimidin-7-yl]phenyl]benzamide] | – | < 1
O=C(Nc1cccc(-c2ccnc3c(C(=O)c4cccs4)cnn23)c1)c1ccc(Cl)cc1 [Example 89] | 1 to 10 | –
O=C(Nc1cccc(-c2ccnc3c(C(=O)c4cccs4)cnn23)c1)c1ccc(Br)cc1 [Example 90, 4-bromo-N-{3-[3-(thien-2-ylcarbonyl)pyrazolo[1,5-a]pyrimidin-7-yl]phenyl}benzamide] | – | 1 to 10
CCCCCCCOc1ccc(C(=O)Nc2cccc(-c3ccnc4c(C(=O)c5cccs5)cnn34)c2)cc1 [Example 91, 4-(heptyloxy)-N-{3-[3-(thien-2-ylcarbonyl)pyrazolo[1,5-a]pyrimidin-7-yl]phenyl}benzamide] | – | 10 to 50
CCCCCc1ccc(C(=O)Nc2cccc(-c3ccnc4c(C(=O)c5cccs5)cnn34)c2)cc1 [Example 92, 4-pentyl-N-{3-[3-(thien-2-ylcarbonyl)pyrazolo[1,5-a]pyrimidin-7-yl]phenyl}benzamide] | – | 10 to 50
COc1cccc(C(=O)Nc2cccc(-c3ccnc4c(C(=O)c5cccs5)cnn34)c2)c1 [Example 97, 3-methoxy-N-{3-[3-(thien-2-ylcarbonyl)pyrazolo[1,5-a]pyrimidin-7-yl]phenyl}benzamide] | – | < 1
O=C(Nc1cccc(-c2ccnc3c(C(=O)c4cccs4)cnn23)c1)c1cccc(F)c1 [Example 98, 3-fluoro-N-{3-[3-(thien-2-ylcarbonyl)pyrazolo[1,5-a]pyrimidin-7-yl]phenyl}benzamide] | – | < 1

SMILES | IC50 [µM] | IC50 (Homo sapiens, 120 h) [µM]
COc1ccc(C(=O)Nc2cccc(-c3ccnc4c(C(=O)c5cccs5)cnn34)c2)cc1OC [Example 99, 3,4-dimethoxy-N-{3-[3-(thien-2-ylcarbonyl)pyrazolo[1,5-a]pyrimidin-7-yl]phenyl}benzamide] | – | 1 to 10
O=C(Nc1cccc(-c2ccnc3c(C(=O)c4cccs4)cnn23)c1)c1ccc(Cl)c(Cl)c1 [Example 100, 3,4-dichloro-N-{3-[3-(thien-2-ylcarbonyl)pyrazolo[1,5-a]pyrimidin-7-yl]phenyl}benzamide] | – | 10 to 50
COc1cccc(OC)c1C(=O)Nc1cccc(-c2ccnc3c(C(=O)c4cccs4)cnn23)c1 [Example 101, 2,6-dimethoxy-N-{3-[3-(thien-2-ylcarbonyl)pyrazolo[1,5-a]pyrimidin-7-yl]phenyl}benzamide] | – | < 1
O=C(Nc1cccc(-c2ccnc3c(C(=O)c4cccs4)cnn23)c1)c1ccc(F)c(F)c1 [Example 102, 3,4-difluoro-N-{3-[3-(thien-2-ylcarbonyl)pyrazolo[1,5-a]pyrimidin-7-yl]phenyl}benzamide] | – | 1 to 10
O=C(Nc1cccc(-c2ccnc3c(C(=O)c4cccs4)cnn23)c1)c1cccc2ccccc12 [Example 103, N-{3-[3-(thien-2-ylcarbonyl)pyrazolo[1,5-a]pyrimidin-7-yl]phenyl}-1-naphthamide] | – | < 1
O=C(Nc1cccc(-c2ccnc3c(C(=O)c4cccs4)cnn23)c1)c1ccc2ccccc2c1 [Example 104, N-{3-[3-(thien-2-ylcarbonyl)pyrazolo[1,5-a]pyrimidin-7-yl]phenyl}-2-naphthamide] | – | 10 to 50
O=C(Cc1ccccc1)Nc1cccc(-c2ccnc3c(C(=O)c4cccs4)cnn23)c1 [Example 105, 2-phenyl-N-{3-[3-(thien-2-ylcarbonyl)pyrazolo[1,5-a]pyrimidin-7-yl]phenyl}acetamide] | – | < 1
COc1ccc(CC(=O)Nc2cccc(-c3ccnc4c(C(=O)c5cccs5)cnn34)c2)cc1 [Example 106, 2-(4-methoxyphenyl)-N-{3-[3-(thien-2-ylcarbonyl)pyrazolo[1,5-a]pyrimidin-7-yl]phenyl}acetamide] | – | < 1
COc1cccc(CC(=O)Nc2cccc(-c3ccnc4c(C(=O)c5cccs5)cnn34)c2)c1 [Example 107, 2-(3-methoxyphenyl)-N-{3-[3-(thien-2-ylcarbonyl)pyrazolo[1,5-a]pyrimidin-7-yl]phenyl}acetamide] | – | < 1
O=C(Cc1ccc(Cl)cc1)Nc1cccc(-c2ccnc3c(C(=O)c4cccs4)cnn23)c1 [Example 108, 2-(4-chlorophenyl)-N-{3-[3-(thien-2-ylcarbonyl)pyrazolo[1,5-a]pyrimidin-7-yl]phenyl}acetamide] | – | < 1
O=C(Cc1ccc(F)cc1)Nc1cccc(-c2ccnc3c(C(=O)c4cccs4)cnn23)c1 [Example 109, 2-(4-fluorophenyl)-N-{3-[3-(thien-2-ylcarbonyl)pyrazolo[1,5-a]pyrimidin-7-yl]phenyl}acetamide] | – | < 1
COc1ccc(OC)c(CC(=O)Nc2cccc(-c3ccnc4c(C(=O)c5cccs5)cnn34)c2)c1 [Example 110, 2-(2,5-dimethoxyphenyl)-N-{3-[3-(thien-2-ylcarbonyl)pyrazolo[1,5-a]pyrimidin-7-yl]phenyl}acetamide] | – | 1 to 10
O=C(COc1ccccc1)Nc1cccc(-c2ccnc3c(C(=O)c4cccs4)cnn23)c1 [Example 111, 2-phenoxy-N-{3-[3-(thien-2-ylcarbonyl)pyrazolo[1,5-a]pyrimidin-7-yl]phenyl}acetamide] | – | 1 to 10
O=C(Nc1cccc(-c2ccnc3c(C(=O)c4cccs4)cnn23)c1)c1ccc(F)cc1 [Example 112, 4-fluoro-N-{3-[3-(thien-2-ylcarbonyl)pyrazolo[1,5-a]pyrimidin-7-yl]phenyl}benzamide] | – | < 1
CCOC(=O)NCC(=O)Nc1cccc(-c2ccnc3c(C(=O)c4cccs4)cnn23)c1 [Example 113, ethyl 2-oxo-2-({3-[3-(thien-2-ylcarbonyl)pyrazolo[1,5-a]pyrimidin-7-yl]phenyl}amino)ethylcarbamate] | – | 1 to 10
